The text below walks through data of patent publication US4242327A, “Antibiotic SF-2052 substance and production and use thereof” (Meiji Seika Kaisha, Ltd., priority 1978, dated 1980).

A short description of one data set: Solubility. It is filed as physicochemical. As to conditions: for solubility in organic solvents: chloroform, ethyl acetate.
A further data set is described as follows: Stability. It is filed as physicochemical.
The next data set relates to mice. Nature of the data set: Acute toxicity, intravenous injection in mice. It is filed as in vivo. As to conditions: in words. The text has this: (§1) For determination of acute toxicity of the SF-2052 substance sulfate, this was intravenously injected as its solution in isotonic aqueous solution of sodium chloride into several groups of mice. […] According to this invention, therefore, there is further provided an antibacterial composition comprising as the active ingredient an antibacterially effective amount of at least one of the pharmaceutically acceptable acid-addition salts of the SF-2052 substance, in association with a pharmaceutically acceptable liquid or solid carrier. The content of this active ingredient in this antibacterial composition may be in a range of 5% to 50% by weight of the composition.

Data set [1] is described as follows: Acute toxicity, intravenous injection in mice. The format is in vivo. Conditions: mouse, in vivo, solution in isotonic aqueous sodium chloride, estimated.
Excerpt: as §1

The subject of a further data set is Sarcina lutea. Nature of the data set: Minimum inhibitory concentration, standard serial dilution method on Heart Infusion agar. The format is cell-based. As to conditions: Micrococcus luteus, 37° C., 16 hours. Here is the method:
(§2) Antibacterial activity of SF-2052 substance of this invention (as the sulfate) to inhibit the growth of various bacteria was estimated according to a standard serial dilution method using Heart Infusion agar as the incubation medium. The incubation was made at a temperature of 37° C. for 16 hours.

Another data set relates to Escherichia coli. The data set is described as above. It is filed as cell-based. As to conditions: 37° C., 16 hours. Here is the method: as §2
The subject of data set [2] is Mycobacterium smegmatis 607 Sm-R. The data set is described as above. The format is cell-based. Conditions: Mycolicibacterium smegmatis, 607SMR, 16 h. Here is the method:
as §2

Data set [3] has as its system Mycobacterium smegmatis 607 Km-R. The description is as above. It is filed as cell-based. Conditions: Mycolicibacterium smegmatis, 607KMR, 16 h. Here is the method:
as §2

A further data set has as its system Klebsiella pneumonia. Described as above. The format is cell-based. As to conditions: Klebsiella pneumoniae, 37° C., 16 hours. As to the method: as §2
The next data set concerns Pseudomonas aeruginosa. Described as above. The format is cell-based. As to conditions: 37° C., 16 hours. As to the method: as §2
For another data set, the system named is Proteus vulgaris. Described as above. As to conditions: 37° C., 16 hours. The format is cell-based. Here is the method: as §2
The subject of a further data set is Escherichia coli K-12-R. The description is as above. The format is cell-based. As to conditions: 16 h. Here is the method: as §2
The test system of data set [4] is Bacillus subtillis PCI-219. Described as above. The format is cell-based. As to conditions: PCI219, 37° C., 16 hours. As to the method: as §2
Another data set has as its system Escherichia coli B. The description is as above. It is filed as cell-based. Conditions: 37° C., 16 hours. As to the method: as §2
Data set [5] relates to Staphylococcus aureus 209P. The description is as above. It is filed as cell-based. Conditions: 37° C., 16 hours. Here is the method:
as §2

The test system of data set [6] is gram-negative and gram-positive bacteria. Nature of the data set: Antibacterial activity, summary of Table 1. The format is cell-based. Conditions: against both gram-negative and gram-positive bacteria. As to the method:
as §2

“Also recorded” adds a separate entry of the source. Structures can show the parent of a compound that is named as a salt.

Take `COC1C(O)C(N)C(OC2OC(C(C)N)CCC2N)C(O)C1N(C)C(=O)CNC=N` (stereo not drawn) [SF-2052 substance hydrochloride]: the “solubility in organic solvents” value was “substantially insoluble” in the data set “Solubility” (hexane, benzene and ethylether etc.); “insoluble” in “Solubility” (benzene and ethylether). For the same compound, the solubility in methanol entry in “Solubility” (methanol) is reported as “soluble in methanol”. Moreover, the solubility in water result in “Solubility” (water) is listed as “Easily soluble in water; also recorded: readily soluble in water”. Further, in “Stability” (acidic to neutral pH), the “stability under acidic to neutral pH conditions” value was “Relatively stable; also recorded: substantially stable”. In “Stability”, the “stability under alkaline pH conditions” value was “instable”.
With `COC1C(O)C(N)C(OC2OC(C(C)N)CCC2N)C(O)C1N(C)C(=O)CNC=N` (stereo not drawn) [SF-2052 substance sulfate], the acute toxicity entry with mice is listed as “substantially non-toxic”. Further, the median lethal dose (LD50) in data set [1] is 350 mg/kg. In addition, the MIC in the data set on Sarcina lutea was found to be 0.78 µg/mL; in the data set with Escherichia coli, 12.5 µg/mL; in [2], 1.56 µg/mL; in data set [3], 100 µg/mL; in the data set with Klebsiella pneumonia, 3.12 µg/mL; with Pseudomonas aeruginosa, 100 µg/mL. For the same compound, the MIC in the data set with Proteus vulgaris came to 1.56 µg/mL; against Escherichia coli K-12-R it was 3.12 µg/mL; in [4], 1.56 µg/mL; against Escherichia coli B, 6.25 µg/mL; in data set [5] it was 3.12 µg/mL.
`COC1C(O)C(N)C(OC2OC(C(C)N)CCC2N)C(O)C1N(C)C(=O)CNC=N` (stereo not drawn) [SF-2052 substance]: the “stability under alkaline pH conditions” value in the data set “Stability” is on record as “very instable; also recorded: instable”. Moreover, the antibacterial activity result in data set [6] was “high antibacterial activity against both gram-negative and gram-positive bacteria”.
